From patent US8802597B2, “Herbicidal pyrimidines” (E I du Pont de Nemours and Company, priority 2003, dated 2014)
Where two headings read alike, the source gives them in different places.

Key:
Test in all cases: Test C pre/postemergence
Format in all cases: in vivo
[1] = test system: Surinam grass (Brachiaria decumbens); conditions: Urochloa decumbens, pre-emergence; Preemergence, 250 g ai/ha; scale 0 to 100; read-out: Plant response rating, Surinam Grass
In short: (§1)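 Applications: preemergence onto seeded soil and postemergence onto 1- to 4-leaf seedlings, compound carried in non-phytotoxic solvent plus surfactant. Kept in greenhouse 12 to 14 days. Scored visually relative to untreated controls, 0 (no effect) to 100 (complete control).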

[2] = test system: bermudagrass (Cynodon dactylon); conditions: Cynodon dactylon; for pest or weed control at 31 g/ha: 31 g ai/ha; for pest or weed control at 62 g/ha: 62 g ai/ha; for pest or weed control at 125 g/ha: 125 g ai/ha; for pest or weed control at 250 g/ha: 250 g ai/ha
In short: as §1

[3] = test system: velvetleaf (Abutilon theophrasti); conditions: Abutilon theophrasti; for pest or weed control at 31 g/ha: 31 g ai/ha; for pest or weed control at 62 g/ha: 62 g ai/ha; for pest or weed control at 125 g/ha: 125 g ai/ha; for pest or weed control at 250 g/ha: 250 g ai/ha
In short: as §1

[4] = test system: yellow nutsedge (Cyperus esculentus); conditions: Cyperus; for pest or weed control at 31 g/ha: 31 g ai/ha; for pest or weed control at 62 g/ha: 62 g ai/ha; for pest or weed control at 125 g/ha: 125 g ai/ha; for pest or weed control at 250 g/ha: 250 g ai/ha
In short: as §1

[5] = test system: morningglory (Ipomoea coccinea); conditions: Ipomoea; for pest or weed control at 31 g/ha: 31 g ai/ha; for pest or weed control at 62 g/ha: 62 g ai/ha; for pest or weed control at 125 g/ha: 125 g ai/ha; for pest or weed control at 250 g/ha: 250 g ai/ha
In short: as §1

[6] = test system: eastern black nightshade (Solanum ptycanthum); conditions: Solanum, pre-emergence, Preemergence, read-out: Plant response rating, Nightshade
In short: as §1

[7] = test system: goosegrass (Eleusine indica); conditions: Eleusine indica; for pest or weed control at 31 g/ha: 31 g ai/ha; for pest or weed control at 62 g/ha: 62 g ai/ha; for pest or weed control at 125 g/ha: 125 g ai/ha; for pest or weed control at 250 g/ha: 250 g ai/ha
In short: as §1

[8] = post-emergence, Postemergence, scale 0 to 100 (0 no effect, 100 complete control), read-out: Bermudagrass plant response rating
[9] = pre-emergence, Preemergence, scale 0 to 100, 0 no effect, 100 complete control, read-out: Plant response rating, Bermudagrass
[10] = pre-emergence, Preemergence, scale 0 to 100, read-out: Plant response rating, Bermudagrass
[11] = post-emergence, Postemergence, scale 0 to 100 (0 no effect, 100 complete control), read-out: Velvetleaf plant response rating
[12] = pre-emergence, Preemergence, scale 0 to 100, 0 no effect, 100 complete control, read-out: Plant response rating, Velvetleaf
[13] = pre-emergence, Preemergence, scale 0 to 100, read-out: Plant response rating, Velvetleaf
[14] = post-emergence, Postemergence, scale 0 to 100 (0 no effect, 100 complete control), read-out: Nutsedge, Yellow plant response rating
[15] = pre-emergence, Preemergence, scale 0 to 100, 0 no effect, 100 complete control, read-out: Plant response rating, Nutsedge, Yellow
[16] = pre-emergence, Preemergence, scale 0 to 100, read-out: Plant response rating, Nutsedge, Yellow
[17] = post-emergence, Postemergence, scale 0 to 100 (0 no effect, 100 complete control), read-out: Morningglory plant response rating
[18] = pre-emergence, Preemergence, scale 0 to 100, 0 no effect, 100 complete control, read-out: Plant response rating, Morningglory
[19] = pre-emergence, Preemergence, scale 0 to 100, read-out: Plant response rating, Morningglory
[20] = post-emergence, Postemergence, scale 0 to 100 (0 no effect, 100 complete control), read-out: Goosegrass plant response rating
[21] = pre-emergence, Preemergence, scale 0 to 100, 0 no effect, 100 complete control, read-out: Plant response rating, Goosegrass
[22] = pre-emergence, Preemergence, scale 0 to 100, read-out: Plant response rating, Goosegrass

CCOC(=O)c1nc(-c2ccc(Cl)cc2)nc(N)c1Cl [Compound 64, ethyl 6-amino-5-chloro-2-(4-chlorophenyl)-4-pyrimidinecarboxylate]
pest or weed control at 250 g/ha [1]: 90% | pest or weed control at 31 g/ha ([2]; post-emergence, Postemergence, read-out: Plant response rating (scale of 0 to 100), Bermudagrass): 20% | pest or weed control at 62 g/ha [2, 8]: 60% | pest or weed control at 125 g/ha [2, 8]: 65% | pest or weed control at 250 g/ha ([2]; post-emergence, Postemergence, scale 0 to 100, read-out: Plant response rating, Bermudagrass): 70% | pest or weed control at 31 g/ha [2, 9]: 0% | pest or weed control at 62 g/ha [2, 9]: 0% | pest or weed control at 125 g/ha [2, 10]: 20% | pest or weed control at 250 g/ha [2, 10]: 20% | pest or weed control at 31 g/ha ([3]; post-emergence, Postemergence, read-out: Plant response rating (scale of 0 to 100), Velvetleaf): 80% | pest or weed control at 62 g/ha [3, 11]: 85% | pest or weed control at 125 g/ha [3, 11]: 90% | pest or weed control at 250 g/ha ([3]; post-emergence, Postemergence, scale 0 to 100, read-out: Plant response rating, Velvetleaf): 95% | pest or weed control at 31 g/ha [3, 12]: 0% | pest or weed control at 62 g/ha [3, 12]: 0% | pest or weed control at 125 g/ha [3, 13]: 0% | pest or weed control at 250 g/ha [3, 13]: 0% | pest or weed control at 31 g/ha ([4]; post-emergence, Postemergence, read-out: Plant response rating (scale of 0 to 100), Nutsedge, Yellow): 40% | pest or weed control at 62 g/ha [4, 14]: 50% | pest or weed control at 125 g/ha [4, 14]: 50% | pest or weed control at 250 g/ha ([4]; post-emergence, Postemergence, scale 0 to 100, read-out: Plant response rating, Nutsedge, Yellow): 50% | pest or weed control at 31 g/ha [4, 15]: 0% | pest or weed control at 62 g/ha [4, 15]: 0% | pest or weed control at 125 g/ha [4, 16]: 0% | pest or weed control at 250 g/ha [4, 16]: 10% | pest or weed control at 31 g/ha ([5]; post-emergence, Postemergence, read-out: Plant response rating (scale of 0 to 100), Morningglory): 90% | pest or weed control at 62 g/ha [5, 17]: 90% | pest or weed control at 125 g/ha [5, 17]: 90% | pest or weed control at 250 g/ha ([5]; post-emergence, Postemergence, scale 0 to 100, read-out: Plant response rating, Morningglory): 90% | pest or weed control at 31 g/ha [5, 18]: 0% | pest or weed control at 62 g/ha [5, 18]: 0% | pest or weed control at 125 g/ha [5, 19]: 0% | pest or weed control at 250 g/ha [5, 19]: 10% | pest or weed control at 31 g/ha ([6]; 31 g ai/ha, scale 0 to 100, 0 no effect, 100 complete control): 5% | pest or weed control at 62 g/ha ([6]; 62 g ai/ha, scale 0 to 100, 0 no effect, 100 complete control): 85% | pest or weed control at 125 g/ha ([6]; 125 g ai/ha, scale 0 to 100): 85% | pest or weed control at 250 g/ha ([6]; 250 g ai/ha, scale 0 to 100): 95% | pest or weed control at 31 g/ha ([7]; post-emergence, Postemergence, read-out: Plant response rating (scale of 0 to 100), Goosegrass): 35% | pest or weed control at 62 g/ha [7, 20]: 35% | pest or weed control at 125 g/ha [7, 20]: 60% | pest or weed control at 250 g/ha ([7]; post-emergence, Postemergence, scale 0 to 100, read-out: Plant response rating, Goosegrass): 70% | pest or weed control at 31 g/ha [7, 21]: 0% | pest or weed control at 62 g/ha [7, 21]: 0% | pest or weed control at 125 g/ha [7, 22]: 0% | pest or weed control at 250 g/ha [7, 22]: 75%
